Assay results as given in US9605013B2, “Derivatives of hemin with antibacterial and antiviral activity” (OBSCHESTVO S OGRANICHENNOI OTVETSTVENNOSTIYU …, priority 2011, dated 2017).

Key:
[1] = Water solubility
[2] = system: Micrococcus luteus BKM Ac-2230; test: Antibacterial activity, serial dilutions in liquid MH medium; type: cell-based; conditions: for MIC: MH medium, 20 h, 37° C., 100% growth inhibition; for MBC: no colonies on agarized MH medium
Outline: (§1)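 Broth microdilution in Mueller-Hinton medium at 37 °C with stirring, using exponential-phase cultures seeded at 5×10^4 to 1×10^5 cells/mL with twofold serial compound dilutions. Growth inhibition read as A595 after 20 h, corrected for compound absorbance; MIC and MBC determined.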

[3] = system: Bacillus subtilis BKM B-501; test: as above; type: cell-based; conditions: for MIC: MH medium, 20 h, 37° C., 100% growth inhibition; for MBC: no colonies on agarized MH medium
Outline: as §1

[4] = system: Staphylococcus aureus 209P; test: as above; type: cell-based; conditions: for MBC: no colonies on agarized MH medium
Outline: as §1

| Compound | water solubility [1] | MIC [2] [µM] | MBC [2] [µM] | MIC [3] [µM] | MBC [3] [µM] | MBC [4] [µM] | MIC ([4]; MH medium, 20 h, 37° C., 100% growth inhibition) [µM] |
| --- | --- | --- | --- | --- | --- | --- | --- |
| 6,7-bis-(Amide N^α-Glycyl)-Protohemin (IX) [IV] | water-insoluble | 0.8 | 0.8 | 1.6 | 1.6 | – | – |
| 6,7-bis-[(Diamide N^α-L-Arginyl)-L-glutamyl]-Protohemin (IX) | water-soluble | 0.8 | 0.8 | 1.6 | 1.6 | 25 | – |
| C=CC1=C(C)c2cc3[n-]c(cc4[n-]c(cc5nc(cc1n2)C(C)=C5C=C)c(C)c4CCC(=O)N[C@@H](CCCNC(=N)N)C(N)=O)c(CCC(=O)N[C@@H](CCCNC(=N)N)C(N)=O)c3C.[Cl-].[Fe+3] [II, 6,7-bis-(Amide N^α-Arginyl)-Protohemin (IX)] | water-soluble | 0.8 | 0.8 | 0.8 | 0.8 | 6.3 | – |
| C=CC1=C(C)c2cc3[n-]c(cc4[n-]c(cc5nc(cc1n2)C(C)=C5C=C)c(C)c4CCC(=O)N[C@@H](CO)C(N)=O)c(CCC(=O)N[C@@H](CO)C(N)=O)c3C.[Cl-].[Fe+3] [V, 6,7-bis-(Amide N^α-Seryl)-Protohemin (IX)] | water-insoluble | 0.8 | 0.8 | 1.6 | 1.6 | 12.5 | – |
| C=CC1=C(C)c2cc3[n-]c(cc4[n-]c(cc5nc(cc1n2)C(C)=C5C=C)c(C)c4CCC(=O)N[C@@H](CO)C(=O)O)c(CCC(=O)N[C@@H](CO)C(=O)O)c3C.[Cl-].[Fe+3] [VI, 6,7-bis-(N^α-Seryl]-Protohemin (IX)] | – | 6.3 | 25 | 12.5 | 25 | – | 50 |
